Experimental data published in ChEMBL document CHEMBL1201862, “PubChem BioAssay data set” (2004).
Calls of active or inactive are those of the source.

Key:
[1] = cells
[2] = molecular target: T1, Oxysterols receptor LXR-beta (Homo sapiens, UniProt P55055); format: functional, cell-based;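 also: Cell-based luminescence dose-response assay of agonist activity at LXR, run as a confirmatory counterscreen to a daf-12 agonist screen; HEK293 cells with Gal4-LXR fusion and GAL4-driven luciferase reporter; agonist potency from rising luciferase signal of a Gal4-LXR reporter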
T1 sequence (P55055 whole entry): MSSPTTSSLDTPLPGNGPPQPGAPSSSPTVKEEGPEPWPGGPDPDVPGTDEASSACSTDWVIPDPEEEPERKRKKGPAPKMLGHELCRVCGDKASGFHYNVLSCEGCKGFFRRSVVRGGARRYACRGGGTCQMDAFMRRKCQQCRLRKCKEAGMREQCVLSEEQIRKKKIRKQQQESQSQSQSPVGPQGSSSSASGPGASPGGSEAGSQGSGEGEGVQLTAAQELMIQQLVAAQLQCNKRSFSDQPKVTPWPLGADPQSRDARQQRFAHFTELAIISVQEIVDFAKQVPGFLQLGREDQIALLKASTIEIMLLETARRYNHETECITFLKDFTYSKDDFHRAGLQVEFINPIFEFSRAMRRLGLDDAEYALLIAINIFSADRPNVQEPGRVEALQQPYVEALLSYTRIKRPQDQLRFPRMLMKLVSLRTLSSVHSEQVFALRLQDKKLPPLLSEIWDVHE

[3] = molecular target: T2, Trace amine-associated receptor 1 (Homo sapiens, UniProt Q96RJ0); assay: Counterscreen for agonists of the human trace amine associated receptor 1 (hTAAR1): Fluorescence-based cell-based high throughput dose response assay to identify hTAAR1 agonist that also desensitize TAAR1 receptor response.; format: functional
T2 sequence (Q96RJ0 whole entry): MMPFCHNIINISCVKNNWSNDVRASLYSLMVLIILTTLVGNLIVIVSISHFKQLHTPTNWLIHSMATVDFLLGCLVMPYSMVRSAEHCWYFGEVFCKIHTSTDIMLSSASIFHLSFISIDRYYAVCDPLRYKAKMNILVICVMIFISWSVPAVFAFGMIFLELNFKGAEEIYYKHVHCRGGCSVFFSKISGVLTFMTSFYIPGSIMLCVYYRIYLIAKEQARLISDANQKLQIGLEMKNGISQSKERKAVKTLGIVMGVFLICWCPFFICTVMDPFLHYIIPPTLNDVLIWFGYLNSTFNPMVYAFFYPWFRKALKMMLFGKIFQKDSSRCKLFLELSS

[4] = cells; format: functional, cell-based
[5] = cells; format: functional, cell-based; remark: listed apart in the source
[6] = molecular target: T2, Trace amine-associated receptor 1; assay: Fluorescence-based cell-based high throughput dose response assay to identify agonists of the human trace amine associated receptor 1 (TAAR1).; format: functional
[7] = molecular target: T3, Caspase-3 (Homo sapiens, UniProt P42574); format: functional;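 also: Dose-response selectivity test against caspase-3 for candidate inhibitors of sentrin-specific proteases (SENPs)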
T3 sequence (P42574 whole entry): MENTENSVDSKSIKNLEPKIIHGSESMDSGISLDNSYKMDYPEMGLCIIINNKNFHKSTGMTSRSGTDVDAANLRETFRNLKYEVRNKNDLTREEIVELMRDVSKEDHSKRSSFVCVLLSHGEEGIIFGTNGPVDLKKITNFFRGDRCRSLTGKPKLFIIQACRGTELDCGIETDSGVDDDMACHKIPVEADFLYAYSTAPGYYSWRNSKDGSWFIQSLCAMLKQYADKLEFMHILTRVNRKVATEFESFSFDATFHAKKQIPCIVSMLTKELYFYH

[8] = molecular target: T4, Sentrin-specific protease 6 (Homo sapiens, UniProt Q9GZR1); format: functional;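 also: Luminescence-based dose-response confirmatory assay of SENP6 inhibition, following up an ultra-high-throughput screen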
T4 sequence (Q9GZR1 whole entry): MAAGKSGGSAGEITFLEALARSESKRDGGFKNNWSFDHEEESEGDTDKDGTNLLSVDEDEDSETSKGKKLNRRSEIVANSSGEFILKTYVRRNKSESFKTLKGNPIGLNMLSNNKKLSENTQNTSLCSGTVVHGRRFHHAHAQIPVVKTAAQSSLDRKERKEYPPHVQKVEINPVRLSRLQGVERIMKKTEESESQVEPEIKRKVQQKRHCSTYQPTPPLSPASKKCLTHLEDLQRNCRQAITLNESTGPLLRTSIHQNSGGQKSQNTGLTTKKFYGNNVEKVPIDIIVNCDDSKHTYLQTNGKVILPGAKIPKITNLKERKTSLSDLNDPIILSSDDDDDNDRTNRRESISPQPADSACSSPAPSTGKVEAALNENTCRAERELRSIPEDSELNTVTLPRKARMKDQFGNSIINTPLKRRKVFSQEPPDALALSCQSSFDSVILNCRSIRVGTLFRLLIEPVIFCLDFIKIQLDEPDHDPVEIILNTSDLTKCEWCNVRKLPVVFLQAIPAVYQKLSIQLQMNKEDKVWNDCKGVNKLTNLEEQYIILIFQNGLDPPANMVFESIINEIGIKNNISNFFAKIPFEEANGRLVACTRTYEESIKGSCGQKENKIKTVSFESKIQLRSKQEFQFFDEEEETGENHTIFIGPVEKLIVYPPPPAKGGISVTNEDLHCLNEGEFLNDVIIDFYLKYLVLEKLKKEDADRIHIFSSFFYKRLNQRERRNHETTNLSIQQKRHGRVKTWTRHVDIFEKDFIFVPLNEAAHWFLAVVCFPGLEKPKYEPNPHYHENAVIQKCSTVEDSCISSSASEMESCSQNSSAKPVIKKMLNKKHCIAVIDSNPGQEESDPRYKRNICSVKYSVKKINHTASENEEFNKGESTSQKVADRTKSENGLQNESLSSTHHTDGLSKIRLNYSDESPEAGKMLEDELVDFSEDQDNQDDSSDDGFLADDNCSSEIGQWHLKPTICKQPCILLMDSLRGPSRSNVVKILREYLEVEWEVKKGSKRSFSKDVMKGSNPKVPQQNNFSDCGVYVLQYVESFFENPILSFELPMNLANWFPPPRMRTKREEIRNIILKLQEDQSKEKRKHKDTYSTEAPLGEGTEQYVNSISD

[9] = molecular target: T5, Sentrin-specific protease 8 (Homo sapiens, UniProt Q96LD8); format: functional;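 also: luminescence read-out of SENP8 inhibition, dose-response confirmation following an ultra-high-throughput screen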
T5 sequence (Q96LD8 whole entry): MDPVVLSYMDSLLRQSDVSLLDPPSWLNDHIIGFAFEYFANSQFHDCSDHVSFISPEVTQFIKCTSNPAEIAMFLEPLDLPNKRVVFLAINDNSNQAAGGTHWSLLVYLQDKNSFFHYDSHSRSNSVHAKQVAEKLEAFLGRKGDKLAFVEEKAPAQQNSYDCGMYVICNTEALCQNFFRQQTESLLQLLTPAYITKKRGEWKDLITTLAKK

[10] = molecular target: T6, Sentrin-specific protease 7 (Homo sapiens, UniProt Q9BQF6); format: functional;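 also: Luminescence-based dose-response confirmation of ultra-high-throughput screening hits, measuring inhibition of SENP7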
T6 sequence (Q9BQF6 whole entry): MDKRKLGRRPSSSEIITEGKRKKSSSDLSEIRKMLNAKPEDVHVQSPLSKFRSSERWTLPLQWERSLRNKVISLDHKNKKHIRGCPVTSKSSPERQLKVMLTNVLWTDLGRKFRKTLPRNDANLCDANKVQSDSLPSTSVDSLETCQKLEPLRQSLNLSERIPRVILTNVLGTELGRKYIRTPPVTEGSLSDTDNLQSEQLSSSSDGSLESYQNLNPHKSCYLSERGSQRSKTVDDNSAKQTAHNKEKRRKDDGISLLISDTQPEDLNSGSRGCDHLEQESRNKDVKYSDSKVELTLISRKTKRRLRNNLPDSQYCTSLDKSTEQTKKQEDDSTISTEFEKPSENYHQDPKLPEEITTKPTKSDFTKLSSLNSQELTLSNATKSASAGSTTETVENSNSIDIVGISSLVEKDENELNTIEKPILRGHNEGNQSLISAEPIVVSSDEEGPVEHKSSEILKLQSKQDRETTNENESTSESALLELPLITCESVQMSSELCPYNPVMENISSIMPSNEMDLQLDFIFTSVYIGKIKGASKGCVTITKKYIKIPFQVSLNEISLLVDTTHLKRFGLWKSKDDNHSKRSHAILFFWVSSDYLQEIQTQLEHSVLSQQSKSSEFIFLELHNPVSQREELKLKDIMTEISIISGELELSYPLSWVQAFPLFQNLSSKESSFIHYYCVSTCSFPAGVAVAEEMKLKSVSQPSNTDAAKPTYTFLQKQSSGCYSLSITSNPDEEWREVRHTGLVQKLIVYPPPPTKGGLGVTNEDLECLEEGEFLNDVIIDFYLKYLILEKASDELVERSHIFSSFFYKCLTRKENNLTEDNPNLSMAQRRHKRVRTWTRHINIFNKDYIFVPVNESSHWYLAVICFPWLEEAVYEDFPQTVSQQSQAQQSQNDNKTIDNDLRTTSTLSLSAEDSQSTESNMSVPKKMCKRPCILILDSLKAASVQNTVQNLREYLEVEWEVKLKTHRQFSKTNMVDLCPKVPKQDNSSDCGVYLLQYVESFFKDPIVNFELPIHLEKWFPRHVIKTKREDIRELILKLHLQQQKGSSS

[11] = system: Streptococcus sp. 'group A'; assay: Streptococcus pyogenes SK(-)GAS viability under kanamycin – luminescence, BacTiterGlo, confirmation, counter-screen for streptokinase expression inhibitor project, dose response (AID 1900); format: functional, organism-based
[12] = molecular target: T7, Streptokinase A (Streptococcus pyogenes serotype M1, UniProt P10520); assay: viability-normalized secreted streptokinase activity reduction – plasminogen activation absorbance, OD405, dose response (AID 1914); format: functional, Streptococcus pyogenes M1 GAS;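 also: secreted streptokinase activity via plasminogen activation per viability signal from cell pellet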
T7 sequence (P10520 whole entry): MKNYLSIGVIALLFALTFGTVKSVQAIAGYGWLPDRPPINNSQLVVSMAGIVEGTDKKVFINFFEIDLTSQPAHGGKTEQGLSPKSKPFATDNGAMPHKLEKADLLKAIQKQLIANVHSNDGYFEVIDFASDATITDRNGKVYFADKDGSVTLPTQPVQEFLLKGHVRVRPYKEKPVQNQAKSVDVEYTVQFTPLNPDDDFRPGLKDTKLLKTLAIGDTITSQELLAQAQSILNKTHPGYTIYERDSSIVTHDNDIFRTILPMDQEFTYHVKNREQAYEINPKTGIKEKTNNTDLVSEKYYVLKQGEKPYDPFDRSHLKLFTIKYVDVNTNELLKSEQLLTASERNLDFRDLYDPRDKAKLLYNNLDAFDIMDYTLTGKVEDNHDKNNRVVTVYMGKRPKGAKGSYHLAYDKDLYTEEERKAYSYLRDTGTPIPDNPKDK

[13] = system: Streptococcus; assay: GAS UMAA2166 growth inhibition – luminescence, BacTiterGlo, counter-screen for streptokinase expression inhibitor project, dose response (AID 1915); format: functional, organism-based;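 also: potency for reduction of bacterial viability or growth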
[14] = molecular target: Disintegrin and metalloproteinase domain-containing protein 17 (Homo sapiens, UniProt P78536); assay: inhibition of ADAM17 substrate cleavage – biochemical, quenched FRET substrate, counter-screen for ADAM10 exosite inhibitor project, dose response (AID 743253)
Disintegrin and metalloproteinase domain-containing protein 17, sequence (P78536 whole entry, the tested form may be a part): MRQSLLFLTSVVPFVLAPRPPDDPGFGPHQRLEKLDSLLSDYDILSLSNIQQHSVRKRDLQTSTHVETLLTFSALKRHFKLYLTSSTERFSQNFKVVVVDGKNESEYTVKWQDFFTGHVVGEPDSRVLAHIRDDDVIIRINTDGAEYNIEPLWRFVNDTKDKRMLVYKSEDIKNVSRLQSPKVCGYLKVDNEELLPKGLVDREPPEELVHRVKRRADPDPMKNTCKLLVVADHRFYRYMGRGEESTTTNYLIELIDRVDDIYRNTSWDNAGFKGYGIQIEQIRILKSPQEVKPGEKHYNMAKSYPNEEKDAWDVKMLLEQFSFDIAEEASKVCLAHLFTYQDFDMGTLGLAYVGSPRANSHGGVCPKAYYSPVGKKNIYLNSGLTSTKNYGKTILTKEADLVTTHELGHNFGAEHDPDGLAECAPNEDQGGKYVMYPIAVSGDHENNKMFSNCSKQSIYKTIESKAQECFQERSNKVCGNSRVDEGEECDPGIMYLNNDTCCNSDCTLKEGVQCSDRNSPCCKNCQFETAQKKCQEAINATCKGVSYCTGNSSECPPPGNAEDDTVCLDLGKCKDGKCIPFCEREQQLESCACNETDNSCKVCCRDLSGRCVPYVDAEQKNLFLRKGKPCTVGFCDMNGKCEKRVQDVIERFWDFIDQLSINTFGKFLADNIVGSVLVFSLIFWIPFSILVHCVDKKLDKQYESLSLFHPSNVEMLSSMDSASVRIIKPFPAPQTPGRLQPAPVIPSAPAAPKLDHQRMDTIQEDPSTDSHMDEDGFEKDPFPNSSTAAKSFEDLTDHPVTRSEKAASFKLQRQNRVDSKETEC

Row | SMILES | EC50 [1] | EC50 [2] | IC50 [3] | IC50 [4] | EC50 [5] | EC50 [6] | further results
1 | O=C1C(/C=N/Cc2ccco2)=C(O)c2ccccc21 | > 67.5 µM (inactive) | > 67.5 µM (inactive) | – | – | – | – | –
2 | O=C(O)/C=C/C(=O)NCCCc1ccccc1 | – | – | > 29.9 µM (inactive) | > 29.9 µM (inactive) | > 29.9 µM (inactive) | 7.06 µM (active) | –
3 | NC(=O)c1c(NC(=O)c2ccccc2)sc2c1CCC2 | > 67.5 µM (inactive) | > 67.5 µM (inactive) | – | – | – | – | IC50 [7]: 27.7 µM (active); IC50 [8]: > 100 µM (inactive); IC50 [9]: > 100 µM (inactive); IC50 [10]: 7.52 µM (active)
4 | Cc1ccn2c(CNCC3OCCc4ccccc43)c(C(=O)N3CCCCCC3)nc2c1 (stereo not given) | – | – | 9.37 µM (active) | > 29.9 µM (inactive) | > 29.9 µM (inactive) | 4.98 µM (active) | –
5 | CCc1ccc(NC(=O)c2ccc(F)c(S(=O)(=O)NCC3COc4ccccc4O3)c2)cc1 (stereo not given) | – | – | – | – | – | – | EC50 [11]: 10.7 µM (active); EC50 [12]: 35.2 µM (active); EC50 [13]: 18.4 µM (active); IC50 [14]: > 69.5 µM (inactive)
